In patent publication US20110045073A1, “METHODS AND COMPOSITIONS OF SPHINGOLIPID FOR PREVENTING AND TREATING MICROBIAL INFECTIONS” (priority 2008, published 2011):

Assays:
Format in all cases: cell-based, Candida albicans
[1] = system: C. albicans (ATTC 10231); assay: microdilution viability assay (plate assay, CFU count); conditions: 1 mM PPB, 60 min at 30° C., CFUs counted
Experimental: C. albicans (ATTC 10231), cultured aerobically at 30° C. on Sabouraud dextrose agar plates (SDA, Oxoid, Hampshire, UK) was suspended in 25 ml of Sabouraud dextrose broth in a 100 ml erlenmeyer flask. After 20 h of incubation at 30° C., 1 ml from this suspension was sub-cultured for 1-2 h in 20 ml of Sabouraud dextrose broth, to obtain a mid-log phase culture. Cells were washed twice in 1 mM potassium phosphate (PPB) or 5 mM Tris (pH 7.2), and resuspended in the same buffer to a cell density of 2 McFarland (McF) (approximately 10^7 cells/ml). The effects of PHS and Hst5 on the viability of C. albicans were determined in a microdilution viability assay. 50 μl aliquots from a mid-log phase culture of C. albicans were incubated with equal volumes of either peptide or PHS solutions (0.3 to 100 μM) and incubated at 30° C. for 60 min. The incubation mixtures were appropriately diluted (200- to 500-fold) in PBS and 25 μl aliquots were plated on SDA. After 48 h incubation at 30° C. the numbers of CFUs were counted. All experiments were repeated at least three times in duplo. The effect of PHS-treatment on the viability of C. albicans was determined in a micro-dilution viability assay, at the concentration range 0-500 μM (FIG. 1). For comparison the effect of treatment with Hst5 (0-50 μM) is shown. […]

[2] = system: C. albicans; assay: synergism between histatin 5 and PHS: PI fluorescence after PHS preincubation, energy-rich (NaCl) or energy-depleted (NaN3); conditions: for extent of additional increase in PI-fluorescence on addition of Hst5: 25 μM PHS preincubation
Experimental: C. albicans (ATTC 10231), cultured aerobically at 30° C. on Sabouraud dextrose agar plates (SDA, Oxoid, Hampshire, UK) was suspended in 25 ml of Sabouraud dextrose broth in a 100 ml erlenmeyer flask. After 20 h of incubation at 30° C., 1 ml from this suspension was sub-cultured for 1-2 h in 20 ml of Sabouraud dextrose broth, to obtain a mid-log phase culture. Cells were washed twice in 1 mM potassium phosphate (PPB) or 5 mM Tris (pH 7.2), and resuspended in the same buffer to a cell density of 2 McFarland (McF) (approximately 10^7 cells/ml). Cells were suspended in 5 mM Tris buffer (pH 7.2), supplemented with either 5 mM NaCl or 5 mM NaN3. These suspensions were subsequently incubated with 0, 10, 50 and 100 μM PHS dissolved in 5 mM Tris buffer. After 60 minutes of incubation at 30° C., PI was added, and subsequently dilution series of Hst 5 in the corresponding buffer were added. Final concentration of PI was 10 μM, final concentrations of Hst5 ranged between 0 and 50 μM, final cell density was 10^7 cells/ml and final PHS concentrations were 0, 5, 25 and 50 μM. After 0, 20, 40 and 60 minutes the PI fluorescence was monitored at excitation and emission wavelengths of 544 and 620 nm, respectively, in a Fluostar Galaxy microplate fluorimeter (BMFG Labtechnologies, Offenburg, Germany).

[3] = system: C. albicans (ATTC 10231); assay: membrane-disruptive activity, propidium iodide fluorescence (PI assay); conditions: 1 mM PPB, after 15 and 60 minutes
Experimental: C. albicans (ATTC 10231), cultured aerobically at 30° C. on Sabouraud dextrose agar plates (SDA, Oxoid, Hampshire, UK) was suspended in 25 ml of Sabouraud dextrose broth in a 100 ml erlenmeyer flask. After 20 h of incubation at 30° C., 1 ml from this suspension was sub-cultured for 1-2 h in 20 ml of Sabouraud dextrose broth, to obtain a mid-log phase culture. Cells were washed twice in 1 mM potassium phosphate (PPB) or 5 mM Tris (pH 7.2), and resuspended in the same buffer to a cell density of 2 McFarland (McF) (approximately 10^7 cells/ml).
Membrane-disruptive activity of Hst5 and phytosphingosine (PHS) was determined by monitoring the fluorescence enhancement of propidium iodide (Invitrogen, Breda, The Netherlands) in Hst5- or PHS treated cells. The membrane impermeant propidium iodide (PI) only enters membrane-compromised cells, after which the fluorescence of this probe is enhanced 20-30-fold due to its binding to nucleic acids.
Cells obtained by the method described above were suspended in 1 mM PPB buffer (pH 7.2) supplemented with PI (final concentration 10 μM) and subsequently added to two-fold serial dilutions of Hst5 (50 μM down to 0.045 μM) or PHS (500 down to 0.5 μM). Final cell density in the assay was 1 McF. […]

CCCCCCCCCCCCCC[C@@H](O)[C@@H](O)[C@@H](N)CO [PHS, phytosphingosine]
concentration at which complete killing was reached [1]: 250 µM
PI fluorescence induced by PHS preincubation alone ([2]; 25 μM PHS in the presence of NaN3, vs control with NaCl): induces an increase in PI fluorescence, comparable to that of the control
effect of PHS pretreatment on sensitivity of C. albicans to Hst5 ([2]; non-lethal dosages PHS, in particular energy-depleted conditions): increases its sensitivity to Hst5
effect of PHS preincubation on Hst5-mediated influx of PI ([2]; preincubation with 25 or 50 μM PHS, NaCl, 6.1 μM Hst5, relative to 0 μM PHS): instantaneously accelerates the Hst5-mediated influx of PI

histatin 5 (DSHAKRHHGYKRKFHEKHHSHRGY) [Hst5]
concentration at which complete killing was reached [1]: 10 µM
concentration needed to induce uptake of PI, Hst5 compared with PHS [3]: induced the uptake of PI at much lower concentrations
extent of additional increase in PI-fluorescence on addition of Hst5 ([2]; NaCl control (energy-rich)): 1000 fluorescence units
extent of additional increase in PI-fluorescence on addition of Hst5 ([2]; NaN3 (energy-depleted)): approx 500 fluorescence units
effect of energy-depletion on sensitivity of C. albicans to the substance ([2]; 5 mM NaN3 vs 5 mM NaCl in 5 mM Tris, t=0 and t=20 min): energy-depletion protects C. albicans against Hst5
lowest Hst5 concentration with immediate additional increase in PI fluorescence ([2]; after pre-incubation with 25 μM PHS, NaCl, t=0): 0.75 µM
